Experimental data taken from patent US20060247320A1, “Compounds for inhibiting KSP kinesin activity” (priority 2005, published 2006).
pIC50: −log10 of the molar value. Where two headings read alike, the source gives them in different places.

Target: T1, KSP motor domain (Homo sapiens, UniProt P52732)
T1 sequence (P52732 18-359 limits assumed): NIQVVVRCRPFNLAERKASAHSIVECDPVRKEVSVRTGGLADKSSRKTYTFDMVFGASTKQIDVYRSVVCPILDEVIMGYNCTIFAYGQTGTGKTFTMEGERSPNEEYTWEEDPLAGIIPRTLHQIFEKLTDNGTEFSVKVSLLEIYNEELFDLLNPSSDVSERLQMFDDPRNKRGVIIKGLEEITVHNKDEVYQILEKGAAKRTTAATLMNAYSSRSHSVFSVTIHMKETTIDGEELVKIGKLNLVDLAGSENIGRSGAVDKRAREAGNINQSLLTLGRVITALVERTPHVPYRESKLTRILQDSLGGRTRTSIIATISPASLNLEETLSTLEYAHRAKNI
Assay: biochemical
Details: for pIC50: read-out: IC50

[1] = KSP inhibitory activity, end-point assay, class symbols (Table 1)

COC(=O)[C@@H]1C[C@@H](O)CN1C(=O)c1cc2cc3c(nc2s1)CCC(C(C)(C)C)C3 (stereo partly shown) [Example 84] was tested, and the pIC50 [1] was 5.00 to 6.00.

CC(C)(C)C1CCc2nc3sc(C(=O)N[C@@H]4CCC[C@H]4O)cc3cc2C1 (stereo partly shown) [Example 85] showed a pIC50 [1] of 5.00 to 6.00.

Work on CC(C)(C)C1CCc2nc3sc(C(=O)N[C@H]4CCC[C@@H]4O)cc3cc2C1 (stereo partly shown) [Example 86] yielded a pIC50 [1] of 5.00 to 6.00.

Compound CC(C)(C)C1CCc2nc3sc(C(=O)N4CCC[C@@H]4C(=O)O)cc3cc2C1 (stereo partly shown) [Example 88] has a pIC50 [1] of under 5.00.

Compound COC(=O)[C@H]1CCCN1C(=O)c1cc2cc3c(nc2s1)CCC(C(C)(C)C)C3 (stereo partly shown) [Example 89] has a pIC50 [1] of under 5.00.

Work on COC(=O)[C@H]1CCCCN1C(=O)c1cc2cc3c(nc2s1)CCC(C(C)(C)C)C3 (stereo partly shown) [Example 90] yielded a pIC50 [1] of under 5.00.

Work on CC(C)(C)C1CCc2nc3sc(C(=O)N4CCCC[C@@H]4C(=O)O)cc3cc2C1 (stereo partly shown) [Example 91] yielded a pIC50 [1] of under 5.00.

COC(=O)[C@H]1C[C@@H](O)CN1C(=O)c1cc2cc3c(nc2s1)CCC(C(C)(C)C)C3 (stereo partly shown) [Example 92] gave a pIC50 [1] of under 5.00.

CC(C)(C)C1CCc2nc3sc(C(=O)N4C[C@H](O)C[C@@H]4C(=O)O)cc3cc2C1 (stereo partly shown) [Example 93] showed a pIC50 [1] of under 5.00.

Work on COC(=O)C(CO)NC(=O)c1cc2cc3c(nc2s1)CCC(C(C)(C)C)C3 (stereo not shown) [Example 94] yielded a pIC50 [1] of 6.00 to 7.00.

CC(C)(C)C1CCc2nc3sc(C(=O)N4CCNCC4)cc3cc2C1 (stereo not shown) [Example 95] showed a pIC50 [1] of under 5.00.

Work on CC(C)(C)C1CCc2nc3sc(C(=O)NC(CO)CO)cc3cc2C1 (stereo not shown) [Example 96] yielded a pIC50 [1] of 6.00 to 7.00.

CN1CCN(C(=O)c2cc3cc4c(nc3s2)CCC(C(C)(C)C)C4)CC1 (stereo not shown) [Example 97] gave a pIC50 [1] of under 5.00.

CC(C)(C)C1CCc2nc3sc(C(=O)NC(CO)(CO)CO)cc3cc2C1 (stereo not shown) [Example 98] was tested, and the pIC50 [1] was 5.00 to 6.00.

Work on CC(C)(C)C1CCc2nc3sc(C(=O)NCCN)cc3cc2C1 (stereo not shown) [Example 99] yielded a pIC50 [1] of over 7.00 and a pIC50 (exact IC50 values, end-point assay (Table 2)) of 7.66.

CC(C)(C)C1CCc2nc3sc(C(=O)NC(CO)C(N)=O)cc3cc2C1 (stereo not shown) [Example 100] showed a pIC50 [1] of 6.00 to 7.00.

With CC(C)(C)C1CCc2nc3sc(C(=O)NCCCN)cc3cc2C1 (stereo not shown) [Example 101] the pIC50 [1] was 6.00 to 7.00.

CC(C)(C)C1CCc2nc3sc(C(=O)NCCCO)cc3cc2C1 (stereo not shown) [Example 102] gave a pIC50 [1] of 6.00 to 7.00.

With CC(O)CNC(=O)c1cc2cc3c(nc2s1)CCC(C(C)(C)C)C3 (stereo not shown) [Example 103] the pIC50 [1] was 5.00 to 6.00.

In the case of CC(C)(C)C1CCc2nc3sc(C(=O)NO)cc3cc2C1 (stereo not shown) [Example 104, 6-tert-Butyl-5,6,7,8-tetrahydrothieno[2,3-b]quinoline-2-carboxylic acid hydroxyamide], the pIC50 [1] was over 7.00.

For CC(C)(C)C1CCc2nc3sccc3cc2C1 (stereo not shown) [Example 105, 6-tert-Butyl-5,6,7,8-tetrahydrothieno[2,3-b]quinoline], the pIC50 [1] was 5.00 to 6.00.

Compound CC(C)(C)C1CCc2nc3sc(C#N)c(Cl)c3cc2C1 (stereo not shown) [Example 111, 6-tert-Butyl-3-chloro-5,6,7,8-tetrahydrothieno[2,3-b]quinoline-2-carbonitrile] has a pIC50 [1] of under 5.00.

CC(C)(C)C1CCc2nc3sc(C#N)c(Br)c3cc2C1 (stereo not shown) [Example 112, 6-tert-Butyl-3-bromo-5,6,7,8-tetrahydrothieno[2,3-b]quinoline-2-carbonitrile] showed a pIC50 [1] of under 5.00.

With CCC(C)(C)C1CCc2nc3sc(C#N)cc3c(Cl)c2C1 (stereo not shown) [Example 113] the pIC50 [1] was 5.00 to 6.00.

Compound CCC(C)(C)C1C=Cc2nc3sc(C(N)=O)cc3cc2C1 (stereo not shown) [Example 114] has a pIC50 [1] of over 7.00.

For CCC(C)(C)C1CCc2nc3sc(C(N)=O)cc3c(Cl)c2C1 (stereo not shown) [Example 115], the pIC50 [1] was 5.00 to 6.00.

Compound CCC(C)(C)C1CCc2nc3sc(C(N)=O)cc3c(O)c2C1 (stereo not shown) [Example 116] has a pIC50 [1] of under 5.00.

CC(C)(C)C1CCc2nc3sc(C(N)=O)c(N)c3cc2C1 (stereo not shown) [Example 118, 3-Amino-6-tert-butyl-5,6,7,8-tetrahydrothieno[2,3-b]quinoline-2-carboxylic acid amide] gave a pIC50 [1] of 5.00 to 6.00.

Work on CC(C)(C)C1CCc2nc3sc4c(=O)[nH]nnc4c3cc2C1 (stereo not shown) [Example 119, 7-tert-Butyl-6,7,8,9-tetrahydro2H-11-thia-2,3,4,10-tetraazabenzo[b]fluoren-1-one] yielded a pIC50 [1] of 5.00 to 6.00.

CC(C)(C)C1CCc2nc3sc(S(C)(=O)=O)c(N)c3cc2C1 (stereo not shown) [Example 120, 6-tert-Butyl-2-methanesulfonyl-5,6,7,8-tetrahydrothieno[2,3-b]quinolin-3-ylamine] showed a pIC50 [1] of 6.00 to 7.00.

With CC(C)(C)C1CCc2nc3sc(S(C)(=O)=O)c(O)c3cc2C1 (stereo not shown) [Example 121, 6-tert-Butyl-2-methanesulfonyl-5,6,7,8-tetrahydrothieno[2,3-b]quinolin-3-ol] the pIC50 [1] was under 5.00.

Work on CC(C)(C)C1CCc2nc3sc(S(C)(=O)=O)cc3cc2C1 (stereo not shown) [Example 122, 6-tert-Butyl-2-methanesulfonyl-5,6,7,8-tetrahydrothieno[2,3-b]quinoline] yielded a pIC50 [1] of 5.00 to 6.00.

Work on CC(C)(C)C1CCc2nc3sc(S(N)(=O)=O)cc3cc2C1 (stereo not shown) [Example 123, 6-tert-Butyl-5,6,7,8-tetrahydrothieno[2,3-b]quinoline-2-sulfonic acid amide] yielded a pIC50 [1] of 6.00 to 7.00.

In the case of CC(=O)Nc1cc2cc3c(nc2s1)CCC(C(C)(C)C)C3 (stereo not shown) [Example 124, N-(6-tert-Butyl-5,6,7,8-tetrahydrothieno[2,3-b]quinolin-2-yl)acetamide], the pIC50 [1] was 5.00 to 6.00.

With CC(C)(C)C1CCc2nc3sc(NC(N)=O)cc3cc2C1 (stereo not shown) [Example 125, (6-tert-Butyl-5,6,7,8-tetrahydrothieno[2,3-b]quinolin-2-yl)urea] the “IC50 (nM)” value [1] was “B/C”.

In the case of CC(C)(C)C1CCc2nc3c(cc2C1)c(N)c(C#N)[s+]3[O-] (stereo not shown) [Example 126, 3-Amino-6-tert-butyl-1-oxo-5,6,7,8-tetrahydro-1H-1λ^4-thieno[2,3-b]quinoline-2-carbonitrile], the pIC50 [1] was 5.00 to 6.00.

Compound CC(C)(C)C1CCc2nc3c(cc2C1)C(N)=C(C#N)S3(=O)=O (stereo not shown) [Example 127, 3-Amino-6-tert-butyl-1,1-dioxo-5,6,7,8-tetrahydro-1H-1λ^6-thieno[2,3-b]quinoline-2-carbonitrile] has a pIC50 [1] of 5.00 to 6.00.

Compound CC(C)(C)C1CCc2nc3sc(S)nc3cc2C1 (stereo not shown) [Example 128, 7-tert-Butyl-5,6,7,8-tetrahydrothiazolo[5,4-b]quinoline-2-thiol] has a pIC50 [1] of 6.00 to 7.00.

CSc1nc2cc3c(nc2s1)CCC(C(C)(C)C)C3 (stereo not shown) [Example 129, 7-tert-butyl-2-methylsulfanyl-5,6,7,8-tetrahydrothiazolo[5,4-b]quinoline] showed a pIC50 [1] of under 5.00.

CC(C)(C)C1CCc2nc3sc(C#N)nc3cc2C1 (stereo not shown) [Example 130, 7-tert-Butyl-5,6,7,8-tetrahydrothiazolo[5,4-b]quinoline-2-carbonitrile] gave a pIC50 [1] of 5.00 to 6.00.

With CC(C)(C)C1CCc2nc3sc(C(N)=O)nc3cc2C1 (stereo not shown) [Example 131, 7-tert-Butyl-5,6,7,8-tetrahydrothiazolo[5,4-b]quinoline-2-carboxylic acid amide] the pIC50 [1] was 6.00 to 7.00.

In the case of CC(C)(C)C1CCc2nc3sc(NC(N)=O)nc3cc2C1 (stereo not shown) [Example 132, (7-tert-Butyl-5,6,7,8-tetrahydrothiazolo[5,4-b]quinolin-2-yl)-urea], the pIC50 [1] was 5.00 to 6.00.

Work on CC(C)(C)C1CCc2nc3sc(N)nc3cc2C1 (stereo not shown) [Example 133, 7-tert-Butyl-5,6,7,8-tetrahydrothiazolo[5,4-b]quinolin-2-ylamine] yielded a pIC50 [1] of under 5.00.

For CC(C)(C)C1CCc2nc3sc(NC=O)nc3cc2C1 (stereo not shown) [Example 134, N-(7-tert-Butyl-5,6,7,8-tetrahydrothiazolo[5,4-b]quinolin-2-yl)-formamide], the “IC50 (nM)” value [1] was “B/C”.

CC(=O)Nc1nc2cc3c(nc2s1)CCC(C(C)(C)C)C3 (stereo not shown) [Example 135, N-(7-tert-Butyl-5,6,7,8-tetrahydrothiazolo[5,4-b]quinolin-2-yl)acetamide] was tested, and the pIC50 [1] was 6.00 to 7.00.
